Measurements: patent US10168338B2, “Methods of identifying modulators of sestrin-gator-2 interaction for modulating mTORC1 activity” (Whitehead Institute for Biomedical Research, priority 2014, dated 2019)

Experiments:
[1] = molecular target: T1, bacterially-produced Sestrin2 (Homo sapiens, UniProt P58004); assay: Thermal shift (protein melting) assay; format: binding; settings: Sestrin2 at 4 μM, Sypro orange; read-out: shift of the melting temperature of Sestrin2
T1 construct: made in house; host or cells: Escherichia coli BL21 DE3 star
T1 sequence (P58004 1-480): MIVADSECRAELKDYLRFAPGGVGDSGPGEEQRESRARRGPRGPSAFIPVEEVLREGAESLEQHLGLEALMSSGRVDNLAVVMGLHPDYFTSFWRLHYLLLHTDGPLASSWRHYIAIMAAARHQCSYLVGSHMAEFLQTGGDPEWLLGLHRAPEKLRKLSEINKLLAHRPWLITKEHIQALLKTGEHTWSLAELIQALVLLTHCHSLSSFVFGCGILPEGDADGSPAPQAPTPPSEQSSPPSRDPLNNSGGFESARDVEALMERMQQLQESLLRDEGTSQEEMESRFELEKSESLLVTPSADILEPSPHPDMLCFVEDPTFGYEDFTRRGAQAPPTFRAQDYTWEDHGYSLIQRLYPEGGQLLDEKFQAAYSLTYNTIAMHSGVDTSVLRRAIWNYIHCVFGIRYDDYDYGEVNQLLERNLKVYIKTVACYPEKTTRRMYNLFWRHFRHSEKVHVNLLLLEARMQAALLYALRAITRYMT
Method: Specific binding of leucine to the bacterially produced Sestrin2 was further confirmed by thermal shift assays. The thermal shift (protein melting) assays were performed according to the LightCycler® 480 instruction manual. Briefly, for Sestrin2, 5× Sypro® orange dye and Sestrin2 at 4 μM were combined with or without leucine or arginine (at the indicated concentrations) in thermal shift buffer (100 mM Tris pH 7.4, 100 mM NaCl, and 1 mM DTT) in a volume of up to 10 μl in one well of a LightCycler® Multiwell 384-well plate. 20× Sypro® orange dye was used for the two control proteins, human choline acetyltransferase (ChAT) (at 4 μM) or Physconitrella patens hydroxycinnamoyl transferase (PpHCT) (at 2.5 μM). Each condition was tested in triplicate. The plate was subjected to a protocol in which the temperature increased from 20° to 85° C. at 0.06° C./second. Fluorescence was recorded and plotted over time, and melting temperatures were calculated as described in the LightCycler® 480 instruction manual. Briefly, the negative first derivative of the curve shown (change in fluorescence/change in temperature) was plotted against the temperature. The peak (i.e., lowest point on this curve) reflects the melting temperature. Each reported melting temperature is the mean±SD for three replicates from one experiment.

Sestrin2-GATOR2 complex = molecular target: T2, Sestrin2-GATOR2 complex (Homo sapiens, UniProt P58004); assay: Amino acids added directly to immunopurified Sestrin2-GATOR2 complexes (immunoblot); format: binding
T2 construct: To isolate the FLAG-WDR24/endogenous-Sestrin2 complex; endogenous in cells; host or cells: HEK-293T cells stably expressing FLAG-WDR24; Sestrin2 and the other GATOR2 subunits are endogenous
T2 sequence (P58004 1-480): T1 sequence (P58004 1-480)
Method: We next tested if leucine acts directly on the Sestrin2-GATOR2 complex.
HEK-293T cells stably expressing FLAG-WDR24 were starved for all amino acids for 50 minutes, lysed and subjected to anti-FLAG immunoprecipitation as described previously. The GATOR2-Sestrin2 complexes immobilized on the agarose beads were washed twice in lysis buffer with 500 mM NaCl, as previously described, and then incubated for 10 minutes in 1 mL of cytosolic buffer with the indicated concentrations of individual amino acids. The amount of GATOR2 and Sestrin2 that remained bound was assayed by SDS-PAGE and immunoblotting as described previously.

In the case of `CC(C)C[C@H](N)C(=O)O` [leucine], the ΔTm [1] is reported as at most 8.5 °C, the “effect on the Sestrin2-GATOR2 interaction in vitro” value (Sestrin2-GATOR2 complex; 300 μM each, added directly to FLAG immunoprecipitates) is reported as “disrupted the interaction” and the EC50 (Sestrin2-GATOR2 complex; added to purified complexes from amino acid-starved cells, equilibrium not attained, relative potency only, read-out: half maximal effect on disruption of the Sestrin2-GATOR2 complex) is reported as about 1000 nM.
